Legend:
[1] = system: Rat skeletal muscle cell strain L6 cells; test: Effect of accelerating the glucose uptake in cultured skeletal muscle cells ([3H]-2-deoxyglucose uptake); format: cell-based; settings: 10 min, 10 μM compound, cultured overnight, 2DG uptake in L6 myotubes, 37° C. 10 minutes, compared with the control group
Procedure: Effect of accelerating the glucose uptake in cultured skeletal muscle cells: Method: Rat skeletal muscle cell strain “L6 cells” in a confluent state was cultured in DME medium containing 2% of fetal calf serum for one week to differentiate into myotubes. The medium was replaced with the DME medium containing a compound synthesized in each of the above Reference Examples. After culturing overnight followed by the thorough washing with HEPES buffer solution, an HEPES buffer solution containing 37 kBq/ml of 10 μM [3H]-2-deoxyglucose (2DG) was added thereto. After the culture at 37° C. for 10 minutes, the radioactivity of 2DG transmigrated into the cells was determined. The effect (%) of each compound on 2DG uptake was determined as compared with that in the control group.

[2] = system: non-insulin-dependent diabetes model mice (KK mice); test: Hypoglycemic effect on non-insulin-dependent diabetes model mice (KK mice); format: in vivo; settings: Mus musculus, 168 h; 30 mg/kg twice a day for one week, KK mice 8 weeks old; fasted overnight; calculated on the basis of blood glucose level (100) in the control group
Procedure: Hypoglycemic Effect on Non-Insulin-Dependent Diabetes Model Mice (KK Mice)
Method: A compound (30 mg/kg) was administered to non-insulin-dependent diabetes model mice (8 weeks old) twice a day for one week. After final administration, the mice were fasted overnight and then the blood glucose concentration of each mouse was determined. The hypoglycemic effect of the compound was calculated on the basis of the blood glucose level (100) in the control group.

SMILES	melting point	activity at 10 µM [1]	inhibition in vivo at 30 mg/kg [2]
CCCCCC(=O)NS(=O)(=O)c1ccccc1NC(=O)c1cccc(OCC2CCCCC2)c1 [compound 34, N-[2-(3-cyclohexylmethoxybenzamido)benzenesulfonyl]hexanamide]	112 to 113 °C	145%	
CCCCCC(=O)NS(=O)(=O)c1ccccc1NC(=O)c1ccc(C#Cc2ccccc2)cc1 [compound 49, N-[2-(4-Phenylethynylbenzamido)benzenesulfonyl]hexanamide]	175 to 176 °C	212%	10.3%
CC(C)(C)C(=O)NS(=O)(=O)c1ccccc1NC(=O)c1ccc(C#Cc2ccccc2)cc1 [compound 51, N-[2-(4-Phenylethynylbenzamido)benzenesulfonyl]pivalamide]	236 to 237 °C	225%	
C/C=C/C=C/C(=O)NS(=O)(=O)c1ccccc1NC(=O)c1ccc(C#Cc2ccccc2)cc1 [compound 53, Trans-N-[2-(4-phenylethynylbenzamido)benzenesulfonyl]-2,4-hexadienamide]	208 to 209 °C		
CC/C=C/CC(=O)NS(=O)(=O)c1ccccc1NC(=O)c1ccc(C#Cc2ccccc2)cc1 [compound 54, Trans-N-[2-(4-phenylethynylbenzamido)benzenesulfonyl]-3-hexenamide]		118%	
CCCSCC(=O)NS(=O)(=O)c1ccccc1NC(=O)c1ccc(C#Cc2ccccc2)cc1 [compound 58, 4-Phenylethynyl-N-(2-(2-propylthioacetylamino)sulfonylphenyl]benzamide]	186 to 188 °C		22.7%
CC(=O)CCCC(=O)NS(=O)(=O)c1ccccc1NC(=O)c1ccc(C#Cc2ccc(OC(F)(F)F)cc2)cc1 [compound 67, 4-(4-Trifluoromethoxyl)phenylethynyl-N-(2-(5-ketohexanoylamino)sulfonylphenyl)benzamide]	204 to 205 °C		40.2%
CCCCCC(=O)NS(=O)(=O)c1ccccc1NC(=O)c1ccc(C#Cc2ccc(F)cc2)cc1 [compound 69, 4-(4-Fluoro)phenylethynyl-N-(2-hexanoylaminosulfonylphenyl)benzamide]	183 to 186 °C	240%	27.7%
CC(=O)CCCC(=O)NS(=O)(=O)c1ccccc1NC(=O)c1ccc(C#Cc2ccc(F)cc2)cc1 [compound 70, 4-(4-Fluoro)phenylethynyl-N-(2-(5-ketohexanoylamino)sulfonylphenyl)benzamide]	179 to 181 °C		30.5%

More lines, main results first:

melting point	SMILES	activity at 10 µM [1]	inhibition in vivo at 30 mg/kg [2]
138 to 141 °C	CCCCCC(=O)NS(=O)(=O)c1ccccc1NC(=O)c1cccc(OCc2ccc([N+](=O)[O-])cc2)c1 [compound 26, N-[2-[3-(4-Nitrobenzyloxy)benzamido]benzenesulfonyl]hexanamide]	134%	
154 to 157 °C	CCCCCC(=O)NS(=O)(=O)c1ccccc1NC(=O)c1cccc(OCc2ccc(OC)cc2)c1 [compound 30, N-[2-[3-(4-Methoxybenzyloxy)benzamido]benzenesulfonyl]hexanamide]	131%	
142 to 143 °C	CCCCCC(=O)NS(=O)(=O)c1ccccc1NC(=O)c1cccc(OCc2ccc(C(F)(F)F)cc2)c1 [compound 41, N-[2-[3-(4-Trifluoromethylbenzyloxy)benzamido]benzenesulfonyl]hexanamide]	230%	
194 to 196 °C	CCCCCC(=O)NS(=O)(=O)c1ccccc1NC(=O)c1ccc(C#Cc2cccc(C(F)(F)F)c2)cc1 [compound 60, 4-(3-Trifluoromethyl)phenylethynyl-N-(2-hexanoylaminosulfonylphenyl)benzamide]	246%	51.1%
169 to 171 °C	CC(=O)CCCC(=O)NS(=O)(=O)c1ccccc1NC(=O)c1ccc(C#Cc2cccc(C(F)(F)F)c2)cc1 [compound 61, 4-(3-Trifluoromethyl)phenylethynyl-N-(2-(5-ketohexanoylamino)sulfonylphenyl)benzamide]		65.7%
175 to 177 °C	CCCOCC(=O)NS(=O)(=O)c1ccccc1NC(=O)c1ccc(C#Cc2cccc(C(F)(F)F)c2)cc1 [compound 62, 4-(3-Trifluoromethyl)phenylethynyl-N-(2-(2-propyloxyacetylamino)sulfonylphenyl)benzamide]		60.9%
210 to 212 °C	CCCCCC(=O)NS(=O)(=O)c1ccccc1NC(=O)c1ccc(C#Cc2ccc(C(F)(F)F)cc2)cc1 [compound 64, 4-(4-Trifluoromethyl)phenylethynyl-N-(2-hexanoylaminosulfonylphenyl)benzamide]	204%	34.5%
197 to 199 °C	CCCCCC(=O)NS(=O)(=O)c1ccccc1NC(=O)c1ccc(C#Cc2ccc(OC(F)(F)F)cc2)cc1 [compound 66, 4-(4-Trifluoromethoxyl)phenylethynyl-N-(2-hexanoylaminosulfonylphenyl)benzamide]	94%	28.2%
183 to 186 °C	CCCCCC(=O)NS(=O)(=O)c1ccccc1NC(=O)c1ccc(C#Cc2cccc(F)c2)cc1 [compound 72, 4-(3-Fluoro)phenylethynyl-N-(2-hexanoylaminosulfonylphenyl)benzamide]	279%	9.2%

From US20030191323A1, “Hypoglycemic agent” (Ajinomoto Co., Inc., priority 2000, published 2003)
